Read-outs that look alike come from different tables or passages of the source.
Key:
[1] = target: T1, E. coli MurA (UDP-N-acetylglucosamine 1-carboxyvinyltransferase, EC:2.5.1.7) (Escherichia coli, UniProt P0A749); experiment: MurA inhibitory assay (colorimetric malachite green method); format: biochemical; set-up: inferred from IMAC purification with imidazole elution; made in house; host or cells: Escherichia coli NiCo21(DE3); details: for IC50 [μM] MurA: Figure 1, methylated library, 30 min preincubation; for remaining activity at 100 µM: 0.5 h, read-out: RA% @ 100 μM MurA 30 min preincubation
Method: Expression and purification of E. coli MurA (UDP-N-acetylglucosamine 1-carboxyvinyltransferase, EC:2.5.1.7) was performed according to the known procedure. Briefly, the MurA plasmid was used to transform chemically competent Escherichia coli NiCo21(DE3) (New England Biolabs, Ipswich, MA, USA). The transformant was cultured at 37 °C and 250 rpm in LB broth. Expression was induced by addition of 1 mM IPTG and cultured for an additional 3 h. Cells were harvested by centrifugation (3000× g for 10 min at 4 °C), and cell pellets were stored at −80 °C until purification. Cell pellets were resuspended in buffer 50 mM Tris (pH 8), 150 mM NaCl, and 10 % glycerol and lysed on ice by sonication. Cell debris was removed by centrifugation for 30 min (16,000× g, 4 °C, repeated twice). The lysate was loaded onto a HiTrap 1 mL IMAC HP column (Cytiva, Marlborough, MA, USA). The column was washed with buffer containing 50 mM imidazole with 20 column volumes, and the protein was eluted with buffer containing 250 mM imidazole. The eluted MurA was exchanged into proprietary buffer (50 mM Tris (pH 8), 150 mM NaCl, 10 % glycerol).
The inhibition of the MurA enzyme was monitored using the colorimetric malachite green method in which orthophosphate generated during the reaction is detected. The assay was performed in 96-well microplates with a final volume of 50 μL. The MurA enzyme was preincubated with the substrate UNAG (UDP-N-acetylglucosamine, Sigma, St. Louis, MO, USA) and compound for 30 min at 37 °C. […] After incubation for 15 min at 37 °C, the enzyme reaction was ended by adding Biomol® reagent (100 µL), and the absorbance was measured at 650 nm after 5 min using a microplate reader (Synergy H4, BioTek Instruments, Inc., Winooski, VT, USA). All of the experiments were run in duplicate. […] IC50 values were determined by measuring residual activities at 7 different compound concentrations and calculated using GraphPad Prism (GraphPad Software, San Diego, CA, USA).

MurA = MurA (Escherichia coli, UniProt P0A749); experiment: MurA covalent labelling, intact MS; format: binding, E. coli; details: 5 mM fragment, 37 °C, 60 min (Figure S1)
Method: The covalent labelling procedure was conducted as described earlier with slight modifications. First, 42 μM stock solution of MurA in 20 mM HEPES at pH 7.2–7.4 with 1 mM DTT (dithiothreitol, Sigma) was filtered through a G25 desalting column, and the medium was changed to 50 mM Tris with 0.005% Triton X-100 at pH 8.0. For the activation of the enzyme, 1 mg UNAG was added as a solid to reach 40 mM concentration, and the mixture was incubated at 37 °C for 30 min. Fragments were added from a 100 mM DMSO stock diluted in the labelling solution to 5 mM. The incubation was continued at 37 °C for an additional 60 min. After the labelling, the mixture was purified on a G25 desalting column.
The molecular weights of the conjugates were identified using a Triple-TOF 5600+ hybrid Q-TOF LC/MS/MS system (Sciex, Singapore, Woodlands) equipped with a Duo Spray Ion Source coupled with a Shimadzu Prominence LC20 UFLC (Shimadzu, Kyoto, Japan) system consisting of a binary pump, an autosampler, and a thermostated column compartment. Data acquisition and processing were performed using Analyst TF software version 1.7.1 (AB Sciex Instruments, Redwood City, CA, USA). Chromatographic separation was achieved on a Thermo BetaBasic C8 (50 mm × 2.1 mm, 3 μm, 150 Å) HPLC column. […]

[2] = NMR-based single-point GSH reactivity assay; format: physicochemical; details: pH 7.4, 1H NMR
Method: For the NMR assay, a 500 mM D2O stock solution was first prepared for each fragment along with an 800 mM D2O stock solution of GSH. Thereafter, a 5 mM electrophilic standard solution was prepared by adding 20 μL of stock solution to a 2 mL 100 mM potassium hydrogen phosphate/sodium hydrogen phosphate buffer solution (pH 7.4). A total of 0.5 mL of this electrophilic standard solution was placed in an NMR tube, and then the ^1H NMR was recorded. The peak values obtained during the measurement were considered the zero-point measurement or reference peaks of the reactivity study. For the reactivity measurement, 20 μL of the fragment stock solution was added to 1980 μL phosphate buffer solution (pH 7.4) along with 20 μL of GSH stock solution (final concentration = […] GSH and 5 mM fragment). The contents were vortexed until homogenization and were transferred to an NMR tube. The resulting mixture was analyzed by ^1H NMR measurements after 15 and 30 min, and 4 and 24 h. The AUC (area under the curve) values were determined via integration of the corresponding peaks in the NMR spectra.

[3] = target: T1, E. coli MurA (UDP-N-acetylglucosamine 1-carboxyvinyltransferase, EC:2.5.1.7); details: read-out: MurA IC50 (µM) Non-Methylated; first-generation non-methylated heterocycles; cited from earlier work
[4] = Table 1, methylated heterocycles, read-out: MurA IC50 (µM) Methylated

T1 sequence (P0A749 whole entry): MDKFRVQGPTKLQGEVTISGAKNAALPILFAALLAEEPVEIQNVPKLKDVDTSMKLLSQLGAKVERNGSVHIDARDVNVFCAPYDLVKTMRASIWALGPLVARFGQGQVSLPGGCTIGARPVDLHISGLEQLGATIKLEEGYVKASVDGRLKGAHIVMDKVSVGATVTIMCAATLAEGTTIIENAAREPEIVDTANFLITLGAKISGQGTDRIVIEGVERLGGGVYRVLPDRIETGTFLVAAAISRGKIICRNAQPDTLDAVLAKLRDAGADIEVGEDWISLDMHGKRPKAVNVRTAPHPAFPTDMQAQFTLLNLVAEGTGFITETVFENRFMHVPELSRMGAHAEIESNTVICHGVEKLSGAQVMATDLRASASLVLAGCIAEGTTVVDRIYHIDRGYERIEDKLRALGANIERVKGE
Chain of MurA (P0A749 whole entry, the tested form may be a part): as the sequence (P0A749 whole entry) above

## C[n+]1ccccc1Cl [A1+]
[1]
  IC50: 51.6 µM

## C[n+]1ccccc1I [A3+]
[1]
  IC50: 15.5 µM

## C#Cc1cccc[n+]1C [A6+]
[1]
  IC50: 50 µM

## C[n+]1ccc(I)cc1 [C3+]
[1]
  IC50 [μM] MurA: single-digit micromolar
[1]; [4]
  IC50: 4.5 µM
MurA
  covalent labelling of MurA by intact MS: single and double labelling on MurA

## C#Cc1cc[n+](C)cc1 [C6+]
[1]; [4]
  IC50: 64.7 µM

## C[n+]1cccnc1Cl [D1+]
[1]
  remaining activity at 100 µM: 99.1%

## C[n+]1cccnc1Br [D2+]
[1]
  remaining activity at 100 µM: 98.2%

## C[n+]1cccnc1I [D3+]
[1]
  IC50 [μM] MurA: single-digit micromolar
[1]; [4]
  IC50: 2.99 µM
[1]; from IC50 values of Table 1
  fold increase in MurA inhibitory potency of methylated versus non-methylated pair: 100 fold

## C#Cc1nccc[n+]1C [D6+]
[2]
  Single point GSH reactivity (% conversion in 15 min, 16 equiv. GSH): 100%
[1]
  remaining activity at 100 µM: 6.7%

## C#Cc1cnc[n+](C)c1 [F6+]
[1]
  remaining activity at 100 µM: 77.8%

## Cn1cc[n+](C)c1I [H3+]
[2]
  Single point GSH reactivity (% conversion in 15 min, 16 equiv. GSH): 100%
[1]
  remaining activity at 100 µM: 10.4%
[1]; [4]
  IC50: 10.2 µM

## C[n+]1ccoc1I [N3+]
[2]
  Single point GSH reactivity (% conversion in 15 min, 16 equiv. GSH): 100%
[1]
  remaining activity at 100 µM: 1.2%

## C[n+]1ccsc1Br [R2+]
[1]
  remaining activity at 100 µM: 42.8%

## C[C@@H]1O[C@@H]1P(=O)(O)O [fosfomycin]
[3]
  IC50: 0.25 ± 0.01 µM
